{"source": "patent US7892782B2", "about": "(priority 1998, dated 2011)", "key": {"[1]": {"tested_on": "Escherichia coli K12", "assay_type": "cell-based", "conditions": "stationary phase ≅10^9 bacteria/ml, 50 μg/ml kanamycin, 3 days"}, "[2]": {"tested_on": "Staphylococcus aureus", "assay_type": "cell-based", "conditions": "stationary phase ≅10^9 bacteria/ml, 100 μg/ml ampicillin, 3 days"}, "[3]": {"tested_on": "M. tuberculosis H37Rv", "assay_type": "cell-based, Mycobacterium tuberculosis"}, "[4]": {"tested_on": "M. tuberculosis", "assay": "Incorporation of [3H]-uridine into RNA after addition of rifampicin", "assay_type": "cell-based, Mycobacterium tuberculosis", "protocol": "For incorporation of radioactive uridine, 10 ml of the culture for each time point was washed twice to remove the remaining rifampicin and then resuspended in 10 ml 7H9 medium followed by incubation with 10 μCi/ml of [^3H]-uridine for 20 hours. For 5* the culture was not washed after incubation with rifampicin and 10 μCi/ml of [^3H]-uridine was added to the culture which was further incubated in the presence of rifampicin for 20 hours. The RNA was extracted by methods known in the art. The RNA [^3H]-uridine incorporation was determined as counts per minute of trichloroacetic acid precipitated RNA. The results were confirmed in three independent experiments."}, "[5]": {"tested_on": "M. tuberculosis", "assay": "RT-PCR of gene transcripts before and after rifampicin treatment", "assay_type": "cell-based, Mycobacterium tuberculosis", "conditions": "12 hours in growth medium alone", "protocol": "The metabolic state of bacilli before and after rifampicin treatment was also assessed by examining total RNA which was extracted. RT-PCR was performed on the following genes; rpoB which encodes the rifampicin target (RNA polymerase sub-unit B); 16 kDa protein α-crystallin homolog); 16S rRNA and two Sigma 70 homologues, sigA and sigB."}, "[6]": {"tested_on": "M. tuberculosis persister cells", "conditions": "data not shown"}}}
{"smiles": "NC[C@H]1O[C@H](O[C@H]2[C@H](O)[C@@H](O[C@H]3O[C@H](CO)[C@@H](O)[C@H](N)[C@H]3O)[C@H](N)C[C@@H]2N)[C@H](O)[C@@H](O)[C@@H]1O", "note": "[kanamycin]", "values": [{"measurement": "phenotypically resistant subpopulation remaining", "setting": "[1]", "result": "~10^5 bacteria/ml"}]}
{"smiles": "CC1(C)S[C@@H]2[C@H](NC(=O)[C@H](N)c3ccccc3)C(=O)N2[C@H]1C(=O)O", "note": "[ampicillin]", "values": [{"measurement": "phenotypically resistant subpopulation remaining", "setting": "[2]", "result": "~10^5 bacteria/ml"}]}
{"smiles": "CO[C@H]1/C=C/O[C@@]2(C)Oc3c(C)c(O)c4c(O)c(c(/C=N/N5CCN(C)CC5)c(O)c4c3C2=O)NC(=O)/C(C)=C\\C=C\\[C@H](C)[C@H](O)[C@@H](C)[C@@H](O)[C@@H](C)[C@H](OC(C)=O)[C@@H]1C", "note": "[rifampicin]", "values": [{"measurement": "Broth counts", "setting": "[3]", "result": "10^2 bacteria/ml"}, {"measurement": "Broth dilution counts of rifampicin treated cultures", "setting": "[3]", "result": "10^2 bacteria/ml"}, {"measurement": "[3H]-uridine incorporation", "setting": "[4]; 100 μg/ml rifampicin 1 day, washed, then 20 h with [3H]-uridine", "result": "2228 ± 88", "unit": "counts per minute"}, {"measurement": "[3H]-uridine incorporation", "setting": "[4]; 100 μg/ml rifampicin 2 days, washed, then 20 h with [3H]-uridine", "result": "2316 ± 120", "unit": "counts per minute"}, {"measurement": "[3H]-uridine incorporation", "setting": "[4]; 100 μg/ml rifampicin 3 days, washed, then 20 h with [3H]-uridine", "result": "2430 ± 54", "unit": "counts per minute"}, {"measurement": "[3H]-uridine incorporation", "setting": "[4]; 100 μg/ml rifampicin 4 days, washed, then 20 h with [3H]-uridine", "result": "2318 ± 126", "unit": "counts per minute"}, {"measurement": "[3H]-uridine incorporation", "setting": "[4]; 100 μg/ml rifampicin 5 days, washed, then 20 h with [3H]-uridine", "result": "2388 ± 20", "unit": "counts per minute"}, {"measurement": "[3H]-uridine incorporation", "setting": "[4]; 5*: 5 days, not washed, [3H]-uridine 20 h in the presence of rifampicin", "result": "518 ± 10", "unit": "counts per minute"}, {"measurement": "increase of radioactive uridine incorporation after removal of rifampicin", "setting": "[4]; medium alone versus in the presence of rifampicin (5 versus 5* days)", "result": "about 5 fold"}, {"measurement": "increase of level of transcription (16K, sigA and rpoB transcripts) after removal of rifampicin", "setting": "[5]", "result": "5- to 10 fold"}]}
{"smiles": "O=C(O)CN(CCN(CC(=O)O)CC(=O)O)CC(=O)O", "note": "[EDTA]", "values": [{"measurement": "effect on persister cell walls and efficacy of rifampicin", "setting": "[6]", "result": "permeabilizes persister cell walls and increases the efficacy of rifampicin"}]}
